Literature values as cited in US20080008727A1, “Compositions comprising adapalene dissolved with cyclodextrins” (GALDERMA RESEARCH & DEVELOPMENT, priority 2004, published 2008).

- Solubility in water (in words): practically insoluble in water
SMILES: COc1ccc(-c2ccc3cc(C(=O)O)ccc3c2)cc1C12CC3CC(CC(C3)C1)C2 [adapalene, 6-[3-(1-adamantyl)-4-methoxyphenyl]-2-naphthoic acid]
